Source: US20090047282A1, “Prophylactic/Therapeutic Agent for Cancer” (priority 2005, published 2009)
Where no end group is shown, it is not given here. The star is where a group is joined. Biotin = O=C1N[C@H]2[C@H](CS[C@H]2CCCCC(=O)*)N1

Assays:
human HHAT [1] = assay: HHAT activity measurement with [3H] palmitoyl CoA and biotinylated substrate peptide on Streptavidin FlashPlate; assay type: biochemical; conditions: 10 μM substrate peptide, reaction 1 hour, FIG. 2
Source text: A peptide (Shh-(24-38)) having 15-mer peptide comprised of amino acids from the 24th position to the 38th position of human Shh (SEQ ID NO: 22) modified with biotin at the lysine residue at the carboxylic terminus, and a peptide (Shh-(24-45)) having 22-mer peptide comprised of amino acids from the 24th position to the 45th position of human Shh modified with biotin at the lysine residue at the carboxylic terminus, were synthesized as a substrate peptide. An HHAT activity measuring system was produced by adding 50 μl reaction buffer (10 mM Tris-HCl (pH7.4), 50 mM magnesium chloride, 2 μM [^3H] palmitoyl CoA, and 400 μg/ml of HHAT enzyme solution) to a 96-well plate coated with streptavidin and a scintillator (Streptavidin FlashPlate, PerkinElmer). The above-mentioned synthetic peptides were added to the reaction system and reacted for a predetermined period. Then, the reaction was terminated by adding 200 μl of 1% aqueous solution of Triton X-100 to the reaction solution. After the reaction, the radioactivity of the reaction solution was measured by the scintillation counter as an HHAT activity.
[^3H] palmitoyl CoA was prepared from [^3H] palmitic acid (GE Healthcare) by a method described in Methods in Enzymology, 250, 299-300, 1995. […]

human HHAT [2] = assay: Knockdown efficiency of siRNA checked with the TaqMan method (quantitative RT-PCR), human HHAT expression; assay type: cell-based; conditions: HT-29 cells, 100 nM siRNA, 5th day after introduction, vs non-silencing siRNA
Protocol: (§1) […] After culturing the cells overnight, siRNA to human Shh (Ambion; SEQ ID NO: 19), siRNA to human HHAT (Ambion; SEQ ID NO: 20), or non-silencing siRNA (Dhamacon, SEQ ID NO: 21) as a control was introduced. The introduction was performed by adding a mixture of 0.4 μl of DhamaFECT4 reagent (Dhamacon) per well and 100 nM of each siRNA to the cells. The knockdown efficiency of each siRNA at this point was checked with the TaqMan method. On the 5th day after the introduction of siRNA, total RNA was extracted from the HT-29 cells using RNeasy mini kit (QIAGEN), and cDNA was synthesized from a random primer using the TaqMan Gold RT-PCR kit (Applied Biosystems). 2 μl of the synthesized cDNA, 10 μl of 2×TaqMan Universal PCR Master Mix (Applied Biosystems), 1 μl of 20×TaqMan Gene Expression Assay (Applied Biosystems) to the human Shh or HHAT, and 7 μl of distilled water were added together to a total amount of 20 μl. This was used as a reaction solution of quantificative RT-PCR.
(§2) Regarding the reaction solution, the expression of human Shh or human HHAT was quantified in the ratio to GAPDH using the ABI PRISM 7700 Sequence Detection System. As compared with the control, the gene expression was suppressed by about 75% in the case of siRNA to human Shh and by about 60% in the case of siRNA to human HHAT.

human Shh = assay: Knockdown efficiency of siRNA checked with the TaqMan method (quantitative RT-PCR), human Shh expression; assay type: cell-based; conditions: HT-29 cells, 100 nM siRNA, 5th day after introduction, vs non-silencing siRNA
Protocol: as §1, §2

Row | Substance | HHAT activity (radioactivity of [3H]-palmitic acid added to the substrate peptide) compared with control without HHAT enzyme solution (human HHAT [1]) | also measured
1 | Shh-(24-38): 15-mer peptide of amino acids 24 to 38 of human Shh (SEQ ID NO: 22), biotin-modified at the carboxy-terminal lysine residue; HHAT substrate peptide (CGPGRGFGKRRHPKK(Biotin)) | conspicuous increase of the radioactivity | 
2 | Shh-(24-45): 22-mer peptide of amino acids 24 to 45 of human Shh, biotin-modified at the carboxy-terminal lysine residue; HHAT substrate peptide (CGPGRGFGKRRHPKKLTPLAYK(Biotin)) | conspicuous increase of the radioactivity | 
3 | siRNA to human HHAT: siRNA to human HHAT (Ambion; SEQ ID NO: 20) (GGAAUUUGAGCUGGAGACUTT; chemistry not given here) |  | suppression of gene expression of human HHAT (ratio to GAPDH) compared with the control (human HHAT [2]): about 60%
4 | siRNA to human Shh: siRNA to human Shh (Ambion; SEQ ID NO: 19) (GGGAAGAUCUCCAGAAACUTT; chemistry not given here) |  | suppression of gene expression of human Shh (ratio to GAPDH) compared with the control (human Shh): about 75%
